What was measured:
[1] = rat heart rate elevation and anti-goiter assays; cited from earlier work
[2] = Single time-point drug distribution of parent drugs from amides in brain and serum; type: in vivo, C57Bl/6 mice; details: equimolar systemic dose of 3.05 μmol/kg, 1 hour, brain
Procedure: Wild type male C57Bl/6 mice, aged 8-10 weeks, were housed in a climate-controlled room with a 12 hour light-dark cycle with ad libitum access to food and water. To compare the single time-point drug distribution of JD-20 with JD-20 generated from the amide MA-JD20, and JD-21 with JD-21 generated from the amide MA-JD-21, the concentrations of the parent drugs were analyzed in brain and serum of mice by administering a dose of 3.05 μmol/kg (three mice per dose) with JD-20, JD-21, MA-JD20 and MA-JD21 both intraperitoneally and orally. The compounds were dissolved in a mixture of 50:50 DMSO and 0.9% sodium chloride bacteriostatic solution. Oral gavage was performed with the use of plastic feeding tubes (20 ga×38 mm, Instech Laboratories Inc., PA, USA) connected to […] insulin syringes (Covidien LLC MA, USA). In both experiments, the mice were euthanized after 1 hour following drug administration.
The tissues were processed as follows: The brains were collected in previously weighed homogenizer tubes with 3 Gold Spec ⅛ chrome steel balls (Applied Industrial Technologies) and immediately frozen at −80° C. The blood samples were kept on ice for 30 mins and then spun down at 5400×G at 4° C. for 15 min. […]
The serum samples were warmed to room temperature. […] The serum samples thus prepared were submitted for LC-MS/MS analysis to quantify the amount of free JD-20 or JD-21. […]

Human FAAH = Human FAAH (Homo sapiens (Human), UniProt O00519); experiment: FAAH activity in cell homogenate; type: biochemical
Procedure: COS-7 cells (ATCC CRL-1651) were cultured in Dulbecco's Modified Eagle's Medium supplemented with 10% FBS, penicillin ([…]), and streptomycin ([…]). Cells (800,000/well) were seeded into 6-well plates (Falcon 353046) and left to adhere overnight. Cells were transfected with pcDNA4-FAAH-FLAG with Lipofectamine 2000 (Invitrogen) according to the manufacturer's protocol. Mock transfection controls were done with transfection reagent and no DNA. Cells were washed 4-days post transfection with cold PBS and scraped into TE buffer (125 mM Tris, 1 mM EDTA, pH 9) and sonicated (10 sec, 60 Sonic Dismembrator, Fisher). Cell homogenates were stored at −80° C. and protein concentrations were determined by BCA (Pierce). Cell homogenates were diluted into TE buffer containing 0.1% fatty-acid free BSA (Alfa Aesar). Substrates were added as 50× stocks in DMSO into 50 μL aliquots of homogenate to a final concentration of 100 μM. Reactions were performed with homogenate protein at 31.25 μg/mL for 15 min at 37° C. Reactions were quenched with 100 μL acetonitrile and vortexed for 20 s. Samples were clarified by centrifuge (10,000 rpm, 15 min, 4° C.). The supernatant is diluted 50-fold into 2:1 MeCN:H2O containing 300 nM d11-arachindonic acid and 30 nM d6-sobetirome. Samples were centrifuged again (13,200 rpm, 15 min, 4° C.). Products were quantified by LC/MS-MS with standard curves generated from mock samples. Observed rates are expressed as nmol product per mg protein homogenate per min.
FAAH was overexpressed in COS-7 cells as described above and cell homogenate was used to measure observed rates of substrate cleavage compared with the classic endogenous FAAH substrate anandamide (AEA). Substrate were all tested at 100 μM. Compared to AEA, the thyromimetic amides MA-GC 1 (9-fold), MA-JD20 (31-fold), and MA-JD21 (20-fold) show decreased rates. […] Observed rates are expressed as nmol product per mg homogenate protein per min.

Hairless (Hr) mRNA = experiment: Induction of Hairless (Hr) mRNA expression in the brain by qPCR after ip administration; type: in vivo, C57BL/6J mice; details: for Hr induction compared to GC-1: analogs at 0.914 μmol/kg ip; for Hr induction compared to GC-1 / EC50 of Hr mRNA induction in the brain / induction of Hr expression: 2 hr; for Hr induction compared to GC-1 / potency greater than GC-1 (Hr induction, single dose) / induction of Hr expression: brain; for potency greater than GC-1 (Hr induction, single dose): from single dose comparison; for EC50 of Hr mRNA induction in the brain: ip, ±SEM; for EC50 of Hr mRNA induction in the brain / induction of Hr expression: normalized to GAPDH mRNA; for induction of Hr expression: 9.14 μmol/kg ip
Procedure: Euthanasia was performed on three mice per dose at 2 hr and the tissues were harvested. The brain tissues collected for qPCR analysis were processed according to a protocol for RNA extraction using Trizol reagent and the PureLink RNA mini kit, using Qiagen RNase-free DNase kit during the optional DNase treatment step. 1 μg of extracted RNA was used to synthesize cDNA via a reverse transcription (RT) reaction using the Qiagen QuantiTect Reverse Transcription kit. DNA contamination was controlled for by duplicating one sample without the addition of RT enzyme. Expression of the Hairless (Hr) gene was measured by QPCR using the QuantiTect SYBR green PCR kit from Qiagen. The primer sequences for hairless ([…]; Rev: [NT] were previously described by Barca-Mayo19. The template cDNA was diluted 2-fold to minimize the interference of RT reagents in the qPCR reaction. Glyceraldehyde-3-Phosphate Dehydrogenase (GAPDH) was the housekeeping gene used for normalizing between samples. Data analysis for single dose experiment was done using the comparative CT method to look at the relative differences in Hr gene expression.

hTRα1 = hTRα1 (Homo sapiens (Human), UniProt P10827); experiment: TRE-driven dual luciferase transactivation assay, TRα; type: cell-based; details: transiently transfected HEK293 cells; ±SEM
Procedure: The cells were trypsinized with 0.25% trypsin, then diluted to 5×10^5 cells/mL with high glucose DMEM. […] 1.5 μg of TR expression vector (full length TRα-CMV or TRβ-CMV), 1.5 μg of a reporter plasmid containing a DR4 thyroid hormone response element (TRE) direct repeat spaced by four nucleotides (AGGTCAcaggAGGTCA) cloned upstream of a minimal thymidine kinase promoter linked to a firefly luciferase coding sequence, and 0.75 μg of a pRL-SV40 constitutive Renilla luciferase reporter plasmid were diluted into 540 μl of OptiMEM. 27 μL of lipofectamine reagent was diluted into 540 μL of OptiMEM. The plasmid and lipofectamine dilutions were combined then incubated at RT for 10 min. The mixture was then diluted into 4.29 mL of OptiMEM. Plates were washed with 100 μL of phosphate buffered saline (PBS) at pH 7.2 without magnesium or calcium chloride per well. Transfection mixtures were added at 50 μL per well, then incubated at 37° C. for 4 hours. […]
(§1) Cells were assayed for luciferase activity using the Promega DualGlo kit. […] A 50 μl volume of Stop & Glo Reagent was added per well, then the plate was read for Renilla luciferase activity. Data normalized to Renilla internal control were analyzed with GraphPad Prism v.4a using the sigmoid dose response model to generate EC50 values±SEM.

[3] = Distribution study in brain and serum after systemic (ip) administration, LC-MS/MS; type: in vivo, C57BL/6J mice; details: 9.14 μmol/kg ip, 1 hr post-injection
Procedure: Euthanasia was performed on three mice per dose at 1 hr and the tissues and blood were harvested. Tissues were immediately frozen and blood was kept on ice for a minimum of 30 minutes and then spun down at 7,500×G for 15 minutes. Serum (100 uL) was collected and was stored with tissues at −80° C. until samples were processed.
The serum samples were warmed to RT and 10 uL of 2.99 μM internal standard (D6-GC-1) was added to them. Acetonitrile (500 uL) was added and the sample was vortexed for 20 seconds. The sample was then centrifuged at 10,000×G for 15 minutes at 4° C. Next, 90% of the upper supernatant was transferred to a glass test tube and concentrated using a speedvac for 1.5 hr at 45° C. The dried sample was then dissolved in 400 μL of 50:50 ACN:H2O and vortexed for 20 seconds. The resulting mixture was transferred to an Eppendorf tube and centrifuged at 10,000×G for 15 minutes. The supernatant was filtered with […] centrifugal filters and submitted for LCMS/MS analysis. […] The processing was performed exactly the same except after filtering the sample was split among 6 vials.
The brain samples were warmed to RT and transferred to a homogenizer tube with 5 GoldSpec ⅛ chrome steel balls (Applied Industrial Technologies). The resulting tube was weighed and then 1 mL of H2O was added, followed by 10 μL of 2.99 μM internal standard (D6-Sobetirome). The tube was homogenized with a Bead Bug for 30 seconds and then transferred to a Falcon® tube containing 3 mL of ACN. A 1 ml volume of ACN was used to wash the homogenizer tube. Then the solution was transferred back to the Falcon® tube. The sample was then processed using the same method for the serum processing described above except the sample was concentrated in a glass tube using a speed vac for 4 hr at 45° C.
A distribution study was carried out in C57BL/6J mice to determine the concentrations in brain and serum after systemic (ip) administration. […] Tissue and blood were collected 1 hr post-injection and the concentration of the drugs was determined by LC-MS/MS analysis (FIG. 2).

hTRβ1 [4] = target: hTRβ1 (Homo sapiens (Human), UniProt P10828); experiment: TRE-driven dual luciferase transactivation assay, TRβ; type: cell-based; details: transiently transfected HEK293 cells; ±SEM
Procedure: (§2) The cells were trypsinized with 0.25% trypsin, then diluted to 5×10^5 cells/mL with high glucose DMEM. […] 1.5 μg of TR expression vector (full length TRα-CMV or TRβ-CMV), 1.5 μg of a reporter plasmid containing a DR4 thyroid hormone response element (TRE) direct repeat spaced by four nucleotides (AGGTCAcaggAGGTCA) cloned upstream of a minimal thymidine kinase promoter linked to a firefly luciferase coding sequence, and 0.75 μg of a pRL-SV40 constitutive Renilla luciferase reporter plasmid were diluted into 540 μl of OptiMEM. 27 μL of lipofectamine reagent was diluted into 540 μL of OptiMEM. The plasmid and lipofectamine dilutions were combined then incubated at RT for 10 min. The mixture was then diluted into 4.29 mL of OptiMEM. Plates were washed with 100 μL of phosphate buffered saline (PBS) at pH 7.2 without magnesium or calcium chloride per well. Transfection mixtures were added at 50 μL per well, then incubated at 37° C. for 4 hours. Modified DME/F-12 Ham's medium without phenol red containing 15 mM HEPES and bicarbonate, 5 mM L-glutamine, charcoal-stripped FBS, 50 units/mL penicillin and 50 μg/mL streptomycin was added at 50 μL per well, then the plates were incubated at 37° C. for 20 hours. Drug stocks were made at 10 mM in DMSO, then serially diluted to 1× concentrations in DME/F-12 Ham's. Plates were washed with 100 μL of PBS (pH 7.2) per well. 100 μL of each drug stock was added to the wells in triplicate, and then the plates were incubated at 37° C. for 24 hours.
as §1

hTRβ1 [5] = experiment: as above; type: cell-based, human; details: transactivation assays in HEK293 cells
Procedure: as §2, §1

hTRα1, sequence (P10827 other isoform, or with tags, fused parts or gaps): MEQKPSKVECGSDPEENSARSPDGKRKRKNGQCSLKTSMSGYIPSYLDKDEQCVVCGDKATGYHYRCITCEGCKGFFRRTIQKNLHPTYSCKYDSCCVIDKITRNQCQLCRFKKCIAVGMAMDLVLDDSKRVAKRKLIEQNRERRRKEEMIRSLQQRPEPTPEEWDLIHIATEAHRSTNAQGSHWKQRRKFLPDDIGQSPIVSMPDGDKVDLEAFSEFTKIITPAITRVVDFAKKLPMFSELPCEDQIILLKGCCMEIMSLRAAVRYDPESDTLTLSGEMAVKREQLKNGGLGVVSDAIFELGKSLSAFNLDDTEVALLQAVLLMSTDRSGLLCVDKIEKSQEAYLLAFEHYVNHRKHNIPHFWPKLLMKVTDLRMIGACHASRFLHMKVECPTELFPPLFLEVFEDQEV
hTRβ1 (Homo sapiens (Human), UniProt P10828), sequence (P10828 whole entry, looked up): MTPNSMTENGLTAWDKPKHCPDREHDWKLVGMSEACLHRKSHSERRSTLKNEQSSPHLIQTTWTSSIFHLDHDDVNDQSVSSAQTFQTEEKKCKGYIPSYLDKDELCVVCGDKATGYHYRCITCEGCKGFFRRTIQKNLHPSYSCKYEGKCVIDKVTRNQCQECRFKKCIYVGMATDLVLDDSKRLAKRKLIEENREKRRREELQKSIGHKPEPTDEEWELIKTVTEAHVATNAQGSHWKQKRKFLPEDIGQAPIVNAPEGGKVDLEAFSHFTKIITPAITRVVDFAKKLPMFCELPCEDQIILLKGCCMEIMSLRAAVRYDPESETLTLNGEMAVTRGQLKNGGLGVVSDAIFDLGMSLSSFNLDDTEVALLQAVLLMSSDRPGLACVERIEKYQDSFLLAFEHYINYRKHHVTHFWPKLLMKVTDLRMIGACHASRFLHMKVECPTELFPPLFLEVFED
Human FAAH, sequence (O00519 whole entry): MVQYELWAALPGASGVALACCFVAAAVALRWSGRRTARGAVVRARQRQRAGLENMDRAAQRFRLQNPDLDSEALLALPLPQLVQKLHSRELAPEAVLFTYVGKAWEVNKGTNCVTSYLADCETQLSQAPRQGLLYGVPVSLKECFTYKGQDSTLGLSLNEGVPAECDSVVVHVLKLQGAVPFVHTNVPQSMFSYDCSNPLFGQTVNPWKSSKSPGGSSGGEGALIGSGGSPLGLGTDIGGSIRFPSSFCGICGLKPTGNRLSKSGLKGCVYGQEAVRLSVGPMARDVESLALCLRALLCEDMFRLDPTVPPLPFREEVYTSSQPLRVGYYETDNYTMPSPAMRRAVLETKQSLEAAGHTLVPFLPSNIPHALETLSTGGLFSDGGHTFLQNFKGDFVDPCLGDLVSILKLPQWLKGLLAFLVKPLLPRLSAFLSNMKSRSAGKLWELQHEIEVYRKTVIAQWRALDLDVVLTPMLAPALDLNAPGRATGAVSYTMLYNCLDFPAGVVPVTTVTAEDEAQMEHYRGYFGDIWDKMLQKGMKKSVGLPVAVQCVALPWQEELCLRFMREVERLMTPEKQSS

Cc1cc(CC(N)C(=O)O)cc(C)c1Oc1ccc(O)c(C(C)C)c1 (racemic) [DIMIT, 3′-isopropyl-3,5-dimethyl-DL-thyronine]
activity [1]: little measurable activity

CNC(=O)COc1cc(Cl)c(Cc2ccc(O)c(C(C)C)c2)c(Cl)c1 [MA-JD21, 2-(3,5-dichloro-4-(4-hydroxy-3-isopropylbenzl)phenoxy)-N-methylacetamide]
parent drug delivered to the CNS compared to unmodified JD-20 or JD-21 [2]: delivers more of the parent drugs to the CNS | FAAH substrate (Human FAAH; 100 μM, COS-7 cell homogenate): substrates for fatty-acid amide hydrolase (FAAH) | decreased observed rate of substrate cleavage compared to AEA (Human FAAH; substrate 100 μM, FAAH overexpressed in COS-7 cell homogenate): 20 fold

CC(C)c1cc(Cc2c(Br)cc(OCC(=O)O)cc2Br)ccc1O [JD-20, 2-(3,5-dibromo-4-((3-isopropyl-4-hydroxyphenyl)methyl)-phenoxy)acetic acid]
Hr induction compared to GC-1 (Hairless (Hr) mRNA): comparable Hr induction to GC-1 | potency greater than GC-1 (Hr induction, single dose) (Hairless (Hr) mRNA): roughly 10 fold | EC50 of Hr mRNA induction in the brain (Hairless (Hr) mRNA): 1.49 ± 1.08 µmol/kg | EC50 (hTRα1): 7.96 ± 6.95 nM | brain:serum ratio compared to GC-1 [3]: comparable to GC-1 | brain uptake compared to GC-1 [3]: somewhat lower | serum levels compared to GC-1 [3]: significantly lower than GC-1 | EC50 (hTRβ1 [4]): 0.88 ± 1.12 nM | TRβ/TRα subtype selectivity from EC50 values (hTRβ1 [5]): 9.04

Cc1cc(OCC(=O)O)cc(C)c1Cc1ccc(O)c(C(C)C)c1 [GC-1, sobetirome, reference compound]
induction of Hr expression (Hairless (Hr) mRNA): 1.6 fold | EC50 of Hr mRNA induction in the brain (Hairless (Hr) mRNA): 8.20 ± 12.65 µmol/kg

CC(C)c1cc(Cc2c(Cl)cc(OCC(=O)O)cc2Cl)ccc1O [JD-21, 2-(3,5-dichloro-4-((3-isopropyl-4-hydroxyphenyl)methyl)-phenoxy)acetic acid]
induction of Hr expression (Hairless (Hr) mRNA): 2.4 fold | Hr induction compared to GC-1 (Hairless (Hr) mRNA): comparable Hr induction to GC-1 | potency greater than GC-1 (Hr induction, single dose) (Hairless (Hr) mRNA): roughly 10 fold | EC50 of Hr mRNA induction in the brain (Hairless (Hr) mRNA): 1.21 ± 1.75 µmol/kg | EC50 (hTRα1): 7.82 ± 3.61 nM | brain:serum ratio compared to GC-1 [3]: higher brain:serum ratio than GC-1 | brain uptake compared to GC-1 [3]: roughly comparable brain uptake compared to GC-1 | serum levels compared to GC-1 [3]: significantly lower than GC-1 | EC50 (hTRβ1 [4]): 1.24 ± 1.3 nM | TRβ/TRα subtype selectivity from EC50 values (hTRβ1 [5]): 6.31

CC(C)c1cc(Oc2c(Br)cc(C[C@H](N)C(=O)O)cc2Br)ccc1O [DIBIT, 3′-isopropyl-3,5-dibromo-L-thyronine]
potency relative to L-T4 [1]: 2-7 fold
